Data taken from patent US10071095B2, “1,2,4-triazolo [4,3-A] pyridine derivatives and their use for the treatment of neurological and psychiatric disorders” (JANSSEN PHARMACEUTICALS, INC., priority 2009, dated 2018).
Like-named read-outs stand apart in the source and are kept apart here.

Experiments:
Format in all cases: in vivo
REM sleep in rats = test: Sleep wake electroencephalography (SW-EEG) in rats
Excerpt: Sleep Wake Electroencephalography (SW-EEG) in Rats
SW-EEG analyses are a highly sensitive read-out of a compound's central functional activity that may provide additional insight in the potential therapeutic application (i.e. via drug classification fingerprinting). […] Internal efforts have confirmed that this effect is mGlu2 receptor-mediated, i.e. is absent in mGlu2 KO mice. Sleep abnormalities are often associated with CNS disorders; as such, the potential use of mGlu2 modulators could also have benefit in the treatment of CNS disorders in which (REM) sleep aberrations are manifested. More specifically, the combination of a persistent reduction in REM occurrence and an increase in REM latency is one of the key features of the typical SW architecture fingerprint of most clinically active antidepressants.
We investigated the effects of oral administration of compounds according to the invention on SW organization in rats. The mGlu2/3 receptor agonists LY404039 and LY354740 were also evaluated to allow comparison.

[1] = system: memantine-induced 2DG uptake in mouse brain (hippocampus); test: Reversal of memantine-induced brain activation ([14C]2DG uptake) in mice
Description: Reversal of Memantine-Induced Brain Activation in Mice
NMDA receptor hypofunction is hypothesized to be involved in schizophrenia.
Autoradiographic assessment of radiolabeled [^14C]-2-deoxyglucose ([^14C]2DG) uptake is commonly used to investigate brain activation. In humans, cerebral blood flow is increased in specific brain regions after administration of a subanaesthetic dose of ketamine.
Male mice (C57BL/6, weight 24-28 g, fasted overnight; n=10 animals per group) were treated with vehicle or test compound (s.c.) in randomized order (t=0 min). Memantine (20 mg/kg, s.c.) was injected 30 min later (t=30 min). At t=45 min, [^14C]2DG (0.16 μCi/g) was administered intraperitoneally (i.p.), followed by a 45 min uptake period. Animals were decapitated (t=90 min), plasma glucose levels measured, the brain removed, rapidly frozen and stored at −20° C. until sectioned. Brain sections were exposed together to a precalibrated [^14C]standard on film, which was developed after four days of exposure. Local tissue [^14C]concentration (nCi/mg tissue equivalent—TEQ—) in each region of interest was determined.
Data was analyzed statistically using a two-way ANOVA analysis followed by post-hoc tests (memantine response versus reversal by the compound). The results are shown in table 5 below, expressed as lowest active dose (L.A.D.) required to exert a statistically significant (p<0.05) reduction of 2DG uptake in the hippocampus compared to memantine response.

[2] = system: d-amphetamine-induced hyperlocomotion in male NMRI mice; test: d-Amphetamine-induced hyperlocomotion in mice (video tracking)
Description: (§1) Motor Activity (Video Tracking)
(§2) Apparatus and General Procedure
On the day of experiments, the mice were brought into the procedural room. They were housed individually and allowed to acclimate for at least a half hour prior to testing. Although the studies were conducted during the light cycle (from 8:00 to 16:00 h), the procedure room was only sparsely lit (3 to 30 LUX) to provide better contrast for the video tracking. Local lighting was used for the injection procedures. During each trial, an individual mouse was placed in an open field arena (grey PVC cylinder with a height of 40 cm and a diameter of 22.5 cm). Each arena was placed on an infrared LED (8×8 LEDs)-lit box (white PVC squared box; 40×40 cm^2; height 12.5 cm). Each mouse was placed in the center of the arena and allowed to explore freely for 30 min. After each trial, the arena was cleaned with a wet and subsequently with a dry cleaning cloth. […] Animal behavior was recorded and analyzed using the Noldus Ethovision XT Video Tracking System (Version 3.1; Noldus, Wageningen, The Netherlands). The total distance traveled (cm) was calculated. […]
Test compound or solvent was administered at a pre-defined time before measurement (standard: 30 min) to male NMRI mice that were challenged with d-amphetamine (5 mg/kg, s.c.) 30 min before measurement. Activity was measured for a period of 30 min.

[3] = system: PCP-induced hyperlocomotion in male NMRI mice; test: Phencyclidine (PCP)-induced hyperlocomotion in mice (video tracking)
Description: as §1, §2
On the day of experiments, the mice were brought into the procedural room. They were housed individually and allowed to acclimate for at least a half hour prior to testing. Although the studies were conducted during the light cycle (from 8:00 to 16:00 h), the procedure room was only sparsely lit (3 to 30 LUX) to provide better contrast for the video tracking. Local lighting was used for the injection procedures. During each trial, an individual mouse was placed in an open field arena (grey PVC cylinder with a height of 40 cm and a diameter of 22.5 cm). Each arena was placed on an infrared LED (8×8 LEDs)-lit box (white PVC squared box; 40×40 cm^2; height 12.5 cm). Each mouse was placed in the center of the arena and allowed to explore freely for 30 min. After each trial, the arena was cleaned with a wet and subsequently with a dry cleaning cloth. An infrared sensitive tube camera and a white light source (in arena: 4-7 LUX) were mounted to the ceiling above the observation chamber to record and input activity to a computer. Animal behavior was recorded and analyzed using the Noldus Ethovision XT Video Tracking System (Version 3.1; Noldus, Wageningen, The Netherlands). The total distance traveled (cm) was calculated. Data were then exported to data management systems for further analysis and reporting.
Phencyclidine (PCP)-Induced Hyperlocomotion in Mice
Test compound or solvent was administered at a pre-defined time before measurement (standard: 30 min) to male NMRI mice that were challenged with phencyclidine (PCP; 5 mg/kg, s.c.) 30 min before measurement. Activity was measured for a period of 30 min.

[4] = system: conditioned avoidance response in male Wiga Wistar rats; test: Conditioned avoidance response (CAR) test in rats; settings: for ED50: Rattus norvegicus, po, read-out: ED50 (mg/kg) CAR-Inh.
Excerpt: Conditioned Avoidance Response (CAR) Test
The apparatus consisted of an inner box surrounded by an outer box. The inner box was composed of four walls of transparent, synthetic material (length×width×height: 30×30×30 cm), an open top, and a grid floor made of 15 pairs of iron bars (2 mm diameter; 6 mm inter-bar distance). Odd and even bars were connected with a source of alternative current (1.0 mA; Coulbourn Instruments Solid State Shocker/Distributor), which could be interrupted by a switch. The outer box was composed of the same material (length×width×height: 40×40×36 cm), also with an open top, with a distance of 5 cm between the inner and outer box on all sides. To decrease the amount of environmental stimuli, three walls of the outer box were made non-transparent. The front wall was left transparent to allow the necessary inspection of the animal during the test. The upper edge of the outer and inner box served as a target for the rats on which to jump with fore- and hind-paws, respectively.
Avoidance Conditioning and Selection of Animals
From their arrival in the laboratory on the experimental day, male Wiga Wistar rats (230±30 g) were housed in individual cages provided with bedding material.
Latency to avoidance was recorded. The median avoidance response obtained over the three experimental sessions for each rat were used for further calculations.

## N[C@@]1(C(=O)O)CC[C@H]2[C@H](C(=O)O)[C@H]21 [LY354740]
REM sleep in rats; acute dosing, s.c.
  lowest active dose, decrease in REM sleep: 3 mg/kg
REM sleep in rats; once daily dosing for 7 days, 1, 3, 10 mg/kg, s.c.
  effect of subchronic treatment on REM sleep effect (in words): led to tolerance

## N[C@@]1(C(=O)O)CS(=O)(=O)[C@H]2[C@H](C(=O)O)[C@H]21 [LY404039, reference compound]
[1]; mouse brain, reference drugs
  effect on memantine-induced brain glucose metabolism / 2DG uptake (in words): inhibited
REM sleep in rats; 3 mg/kg, p.o.
  effect on REM sleep (in words): affect REM sleep

## FC(F)(F)c1c(N2CCC(c3ccccc3)CC2)ccn2c(CC3CC3)nnc12 [compound 43, 3-(Cyclopropylmethyl)-7-(4-phenyl-1-piperidinyl)-8-(trifluoromethyl)-1,2,4-triazolo[4,3-a]pyridine]
[2]; Mus musculus, sc, male NMRI mice, s.c., d-amphetamine 5 mg/kg s.c., criterion total distance <5500 counts, read-out: ED50, inhibition of amphetamine-induced hyperlocomotion
  ED50: 37 mg/kg
[2]; mice
  activity against d-amphetamine-induced hyperlocomotion in mice (in words): active
[3]; Mus musculus, read-out: Mice ED50 (mg/kg) PCP-Inh.
  ED50: 5.4 mg/kg
[3]; mice
  inhibition of PCP-induced hyperlocomotion in mice (in words): inhibited
[4]
  inhibition of the conditioned avoidance response in rats (in words): inhibited
[4]; compound administered orally (*); a)/b) = estimated ED50 values
  ED50: 16.3 mg/kg
[4]; not marked * (not oral; injection per method); b) = estimated ED50 values (n = 3 per dose)
  ED50: 2.35 mg/kg
[1]; mice C57BL/6, s.c., memantine 20 mg/kg s.c., p<0.05
  L.A.D. (lowest active dose for significant reduction of 2DG uptake in hippocampus vs memantine response): ≤2.5 mg/kg, s.c.
REM sleep in rats; once daily dosing for 7 days, 3, 10 and 30 mg/kg, p.o.
  effect of subchronic treatment on REM sleep effect (in words): did not diminish the effects
